Our source for the Ki and Kb values is patent US20250129048A1, “MELANOCORTIN 4 RECEPTOR ANTAGONISTS AND USES THEREOF” (Pfizer Inc., priority 2021, published 2025).

The target of one assay is hMC4R (Homo sapiens (Human), UniProt P32245). As to the kind of experiment: In vitro binding affinity assay using hMC4R (radioligand competition binding, CHO cell membranes). The note with it: competition with [125I]-(Nle4, D-Phe7)-α-MSH 0.5 nM; Ki from IC50 by Cheng-Prusoff; read-out: Ki (nM) geometric mean. The protocol: The binding affinity of test compounds at the α-melanocyte-stimulating hormone receptor (hMC4R) was assessed using a radioligand competition binding assay. Recombinant Chinese hamster ovaries (CHO) cells stably expressing hMC4R (PerkinElmer #ES-191-C) were used for competitive binding. hMC4R membranes were grown in Dulbecco's Modified Essential Medium and Ham's F-12 Medium (DMEM/F12), 10% heat inactivated fetal bovine serum (FBS), 0.4 mg/mL Geneticin and 2 mM L-glutamine. Cell membranes were bulked and frozen until the assay was performed.
hMC4R, sequence (P32245 whole entry): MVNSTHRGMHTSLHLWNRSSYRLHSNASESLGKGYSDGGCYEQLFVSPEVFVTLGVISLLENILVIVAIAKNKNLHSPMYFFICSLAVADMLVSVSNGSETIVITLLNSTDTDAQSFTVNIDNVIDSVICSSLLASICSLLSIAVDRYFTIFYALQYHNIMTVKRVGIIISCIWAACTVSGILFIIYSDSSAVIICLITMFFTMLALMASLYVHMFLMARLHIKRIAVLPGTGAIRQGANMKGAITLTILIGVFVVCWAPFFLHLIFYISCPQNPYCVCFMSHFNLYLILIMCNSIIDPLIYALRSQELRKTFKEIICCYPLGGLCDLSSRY
Compounds were solubilized in 100% dimethyl sulfoxide (DMSO) to a concentration of 30 mM. A 10-point intermediate dilution series using half log dilutions was created in 100% DMSO with a top concentration of 0.03 mM. The serially diluted compounds were spotted as 1 μL/well, in 96-well Costar 3363 plates. The final compound range in the assay was 300 nM to 0.01 nM with a final DMSO concentration of 1%. Control wells, containing 1 μL of 2 mM ([…]) alpha-melanocyte stimulating hormone (α-MSH-Tocris #2584) was added to the non-specific binding wells and 1 μL 100% DMSO for the total binding control wells. This was followed by the addition of 80 μL of assay buffer [25 mM HEPES, 5 mM MgCl2, 2.5 mM CaCl2, 150 mM NaCl, Complete EDTA-free Protease Inhibitor Tablet (Thermo Scientific #11873580001) and 0.25% BSA]. […] The exact concentration of radioligand used for each experiment was determined by liquid scintillation counting and adjusted if necessary.
Frozen hMC4R cell membranes were thawed and Dounce homogenized. Homogenates were resuspended in assay buffer to a concentration of 2 μg per well. […] The plates were incubated for 2 hours at room temperature. Assay samples were then rapidly filtered through Unifilter-96 GF/B PEI coated filter plates using a filter plate harvester (PerkinElmer) and rinsed with ice-cold wash buffer [25 mM (4-(2-hydroxyethyl)-1-piperazineethanesulfonic acid (HEPES), 1 mM MgCl2, 2.5 mM CaCl2, and 500 mM NaCl]. Filter plates were dried overnight at room temperature. Plates were then bottom-sealed prior to the addition of 50 μL/well Ultima Gold XR scintillation fluid (PerkinElmer 6013111). Plates were then top-sealed, incubated for 60 minutes at room temperature and then the amount of radioactivity present was determined by liquid scintillation counting on a Microbeta Trilux (PerkinElmer #2450-0060).
The raw data (expressed as counts per minute) were analyzed using ActivityBase (IDBS Data Management Software). […] Equilibrium dissociation constant for inhibitor of ligand and receptor interaction (Ki) values were then calculated from the IC50 values using the Cheng-Prusoff equation: Ki=IC50/(1+([L]/Kd)), where [L] is the concentration of the radioligand used in the experiment and Kd is the affinity of the radioligand (determined in separate saturation experiments).
(In general: Displacement assays read how much labelled ligand stays bound in the presence of the test substance.)

Assay [1] deals with human Melanocortin-4 receptor (MC4R) (Homo sapiens (Human), UniProt P32245). As to the kind of experiment: Functional in vitro MC4R antagonist potency assay (intracellular cAMP, HTRF, CHO cells). To be noted: cAMP after EC80 agonist stimulation (200 nM αMSH); Kb from IC50 by Leff-Dougall equation; read-out: Kb (nM) Antagonist geometric mean. It is filed as cell-based. The protocol:
The functional in vitro antagonist potency for test compounds was determined by monitoring intracellular cyclic adenosine monophosphate (cAMP) levels in Chinese hamster ovary (CHO—) cells stably expressing the human Melanocortin-4 receptor (MC4R). Following agonist activation, human MC4R associates with the G-protein complex causing the Ga subunit to exchange bound GDP for GTP, followed by dissociation of the Gα-GTP complex. The activated Ga subunit can couple to downstream effectors to regulate the levels of second messengers or cAMP within the cell. Thereby, determination of intracellular cAMP levels allows for pharmacological characterization. Intracellular cAMP levels are quantitated using a homogenous assay utilizing the Homogeneous Time-Resolved Fluorescence (HTRF) technology from CisBio. The method is a competitive immunoassay between native cAMP produced by cells and the cAMP labelled with the acceptor dye, d2. The two entities then compete for binding to a monoclonal anti-cAMP antibody labeled with cryptate. The specific signal is inversely proportional to the concentration of cAMP in the cells.
Test compounds were solubilized to 30 mM in 100% dimethyl sulfoxide (DMSO) and stored. An 11-point dilution series using 1 in 3 162-fold serial dilutions was created in 100% DMSO with a top concentration of 800 μM. The serially diluted compound was spotted into a 384-well plate (Greiner, Cat No. 781280) at 40 nL/well with duplicate points at each concentration, and then diluted 1 in 1000 with 40 μL assay buffer containing HBSS, 20 mM HEPES (Invitrogen), 0.1% BSA, and 250 μM IBMX (Sigma Aldrich) to create an intermediate plate at 2× final assay concentration (FAC). The final compound concentration range in the assay was 400 nM to […], with a final DMSO concentration of 0.1%.
In-house generated CHO cells stably expressing the Gs-coupled human MC4R receptor were plated in 384-well assay plates (Corning, Cat No. 3570) in 50 μL/well of Ham's F-12 containing 10% heat inactivated FBS, 1× penicillin/streptomycin, 1 mM Glutamax (Invitrogen) at a density of 2,500 cells per well and incubated at 37° C. (95% O2: 5% CO2) overnight, with micro-clime lids (Labcyte, Cat No. LLS-0310). On day of assay, media was removed from the assay plate through gentle flicking and blotting plate on a paper towel and replaced with 5 μL of 2× antagonist compound in assay buffer (HBSS, 20 mM HEPES, 0.1% BSA, 250 μM IBMX) and 0.1% DMSO. Cells were incubated with compound for 30 minutes at 37° C. (95% O2: 5% CO2) before addition of 5 μL EC80 agonist stimulation (200 nM α-melanocyte stimulating hormone, αMSH, Bachem) and another 30-minute incubation at 37° C. (95% O2: 5% CO2). Intracellular cAMP levels were quantified as per Cisbio's protocol (5 μL of D2 and then 5 μL Cryptate, incubated for 1-2 hours at room temperature). Samples were measured on an Envision plate reader (PerkinElmer Life and Analytical Sciences; excitation, 320 nm; emission, 665 nm/620 nm).
Data were analyzed using the ratio of fluorescence intensity at 620 and 665 nm for each well, extrapolated from the cAMP standard curve to express data as nM cAMP for each well. Data expressed as nM cAMP were then normalized to control wells using Activity Base (IDBS). Zero percent effect (ZPE) was defined as nM of cAMP generated from EC80 agonist stimulation (200 nM αMSH). In the absence of an antagonist control compound, one hundred percent effect (HPE) was defined as nM of cAMP generated from assay buffer/vehicle only.
Background: In TR-FRET formats the signal depends on donor and acceptor labels being close together.

A word on the Ki: it is the dissociation constant of the complex between target and ligand, obtained from inhibition or displacement. As a reminder, the Kb is the equilibrium dissociation constant of an antagonist, usually derived from a functional assay.

human Melanocortin-4 receptor (MC4R), sequence (P32245 whole entry): as above

For `COc1cc([C@@H](C)C(=O)N2CC[C@H](Nc3ccc(-c4nnn(C)n4)c(C)n3)C2)c(C)cn1` (single isomer, unassigned) [Example 26A], on hMC4R, the Ki is above 170 nM. Besides, in assay [1], the Kb was above 150 nM.

Consider `COc1cc([C@@H](C)C(=O)N2CC[C@H](Nc3ccc(-c4ncccn4)c(C)n3)C2)c(Cl)cn1` [Example 6, (2R)-2-(5-chloro-2-methoxypyridin-4-yl)-1-[(3S)-3-{[6-methyl-5-(pyrimidin-2-yl)pyridin-2-yl]amino}pyrrolidin-1-yl]propan-1-one], for which, at hMC4R, the Ki is 1.1 nM. Besides, the Kb in assay [1] amounted to 2.2 nM.

With `COc1cc([C@@H](C)C(=O)N2CC[C@H](Nc3ccc(-c4nc(C(F)F)n(C)n4)c(C)n3)C2)ccn1` (single isomer, unassigned) [Example 33B], at hMC4R, the Ki is 1.1 nM. For the same molecule, the Kb in assay [1] came out at 3.3 nM.

In the case of `COc1cc(OC(F)F)cc([C@@H](C)C(=O)N2CC[C@H](Nc3ccc(-c4nc(C(C)(F)F)n(C)n4)c(C)n3)C2)c1` (single isomer, unassigned) [Example 40B], on hMC4R, the Ki is 0.29 nM. Moreover, the Kb in assay [1] came to 7.2 nM.

On to `[2H]C([2H])([2H])n1nc(-c2ccc(N[C@H]3CCN(C(=O)[C@H](C)c4cc(OC)ncc4F)C3)nc2C)nc1C(F)(F)F` [Example 42, (2R)-2-(5-fluoro-2-methoxypyridin-4-yl)-1-[(3S)-3-({6-methyl-5-[1-(^2H3)methyl-5-(trifluoromethyl)-1H-1,2,4-triazol-3-yl]pyridin-2-yl}amino)pyrrolidin-1-yl]propan-1-one], for which, on hMC4R, the Ki is 1.3 nM. Further, the Kb in assay [1] worked out at 5.4 nM.

Regarding `COc1cc([C@@H](C)C(=O)N2CC[C@H](Nc3ccc(-c4cn(C)c(C(F)F)n4)c(C)n3)C2)c(F)cn1` (single isomer, unassigned) [Example 38B], the Ki at hMC4R turned out to be 0.31 nM. In assay [1], the Kb came out at 3.2 nM.

Consider `COc1cc([C@@H](C)C(=O)N2CC[C@H](Nc3ccc(-c4nnn(C)n4)c(C)n3)C2)c(C)cn1` (single isomer, unassigned) [Example 26B], for which the Ki at hMC4R worked out at 2.1 nM. For the same molecule, the antagonist dissociation constant (Kb) in assay [1] worked out at 5.6 nM.

For the molecule `COc1cc(OC(F)F)cc([C@@H](C)C(=O)N2CC[C@H](Nc3ccc(-c4ncccn4)c(C)n3)C2)c1` (single isomer, unassigned) [Example 44B], the Ki on hMC4R was 0.77 nM. Moreover, the Kb in assay [1] was 4.1 nM.

As to `COc1cc([C@@H](C)C(=O)N2CC[C@H](Nc3ccc(-c4cn(C)c(C(C)(F)F)n4)c(C)n3)C2)c(C)cn1` (single isomer, unassigned) [Example 16B], on hMC4R, the Ki was determined as 0.23 nM. The Kb in assay [1] worked out at 2.1 nM.

In the case of `COc1cc([C@@H](C)C(=O)N2CC[C@H](Nc3ccc(-c4nc(C(F)F)n(C5CC5)n4)c(C)n3)C2)c(F)cn1` [Example 8, (2R)-1-[(3S)-3-({5-[1-cyclopropyl-5-(difluoromethyl)-1H-1,2,4-triazol-3-yl]-6-methylpyridin-2-yl}amino)pyrrolidin-1-yl]-2-(5-fluoro-2-methoxypyridin-4-yl)propan-1-one], the Ki on hMC4R came to 1.2 nM. Moreover, the Kb in assay [1] is 19 nM.

For the molecule `COc1cc([C@@H](C)C(=O)N2CC[C@H](Nc3ccc(-c4nc5ccccn5n4)c(C)n3)C2)c(F)cn1` [Example 43, (2R)-2-(5-fluoro-2-methoxypyridin-4-yl)-1-[(3S)-3-{[6-methyl-5-([1,2,4]triazolo[1,5-a]pyridin-2-yl)pyridin-2-yl]amino}pyrrolidin-1-yl]propan-1-one], the inhibitory constant (Ki) on hMC4R came to 0.91 nM. In assay [1], the Kb was found to be 9.5 nM.

For `COc1cc([C@@H](C)C(=O)N2CC[C@H](Nc3ccc(-c4ncccn4)c(C)n3)C2)c(C)cn1` (single isomer, unassigned) [Example 22A], the Ki on hMC4R was 120 nM. Also, in assay [1], the Kb is above 110 nM.

As for `Cc1nc(N[C@H]2CCN(C(=O)[C@H](F)c3ccccc3)C2)ccc1-c1cn(C)cn1` (single isomer, unassigned) [Example 13B], the Ki on hMC4R is 0.34 nM. Further, the Kb in assay [1] was 2.9 nM.

Regarding `COc1cc([C@@H](C)C(=O)N2CC[C@H](Nc3ccc(-c4ncccn4)c(C)n3)C2)c(C)cn1` (single isomer, unassigned) [Example 22B], the inhibition constant (Ki) at hMC4R was 2.1 nM. Moreover, the Kb in assay [1] came out at 8.1 nM.

As to `COc1cc([C@@H](C)C(=O)N2CC[C@H](Nc3ccc(-c4nc5ccccn5n4)c(C)n3)C2)c(Cl)cn1` [Example 18, (2R)-2-(5-chloro-2-methoxypyridin-4-yl)-1-[(3S)-3-{[6-methyl-5-([1,2,4]triazolo[1,5-a]pyridin-2-yl)pyridin-2-yl]amino}pyrrolidin-1-yl]propan-1-one], the Ki at hMC4R amounted to 0.51 nM. In addition, the Kb in assay [1] was 2.1 nM.
